Measurements from patent US3989730A, “Bone-seeking technetium-99m complex” (priority 1973, dated 1976).
Where two headings read alike, the source gives them in different places.

Legend:
[1] = test system: callous of three week-old fractures of tibia; test: Localization in callous of three week-old tibial fractures (rabbits), compared with strontium-85; format: in vivo, albino rabbits
Procedure: Adult New Zealand albino rabbits having an average weight of 3.8 kg were utilized. Strontium-85 was employed as a standard for comparison. In a typical experiment 20-250 μCi (i.e., containing approximately 1 mg/kg as the free acid of body weight) of 99mTc EHDP were injected intravenously into the rabbits through the marginal ear vein and compared with 10-20 μ Ci 85 Sr chloride administered simutaneously. Each dosage is contained in a volume of 1 ml.
The animals were sacrificed serially from 1 to 24 hours after injection and the activities in major organs were determined by counting multiple samples from each organ in a scintillation well counter (the technetium-99m counts were corrected for the Compton contributions from the strontium-85 activity in the technetium-99m energy window). Multiple samples were counted from the tibia, femur, spine and pelvic bones; the total activity in the skeleton was estimated by assuming the whole skeleton consisted of equal proportions by weight of tibia, spine, femur and pelvis and that the skeletal mass was 10% of the body weight. The red marrow was sampled from the femur and the total marrow was assumed to be 2.2% of the total body weight. Similarly, blood volume was assumed to be 7% and the skeletal muscle 43% of the body weight. The whole liver and both kidneys were weighed and multiple samples from each were counted to measure the total activity in each organ.
In another series of experiments carried out as described above, localization of technetium from its tin-phosphonate complex was determined in the callous of three week-old fractures of tibia in albino rabbits, again in comparison with strontium-85. Comparative radioassay of technetium-99m administered as the pertechnetate was measured in the callous of tibial fractures in rabbits at one and four hours after administration.

[2] = 2 Hrs
[3] = Simultaneous distribution of 99mTc-EHDP and 85Sr in rabbits at 1-24 hours after intravenous injection; format: in vivo, adult New Zealand albino rabbits; settings: for Blood, % Dose in Whole Organ: blood as 7 % of body weight; for Bone(Avg), % dose in whole organ: bone as 10 % of body weight; for Marrow, % Dose in Whole Organ: marrow as 2.2 % of body weight
Procedure: Adult New Zealand albino rabbits having an average weight of 3.8 kg were utilized. Strontium-85 was employed as a standard for comparison. […] Each dosage is contained in a volume of 1 ml.
Multiple samples were counted from the tibia, femur, spine and pelvic bones; the total activity in the skeleton was estimated by assuming the whole skeleton consisted of equal proportions by weight of tibia, spine, femur and pelvis and that the skeletal mass was 10% of the body weight. […] The whole liver and both kidneys were weighed and multiple samples from each were counted to measure the total activity in each organ.

[4] = cited from earlier work

tin-1-hydroxy-ethane-1,1-diphosphonate [99mTc-EHDP]
Callus, % dose / 1 % body weight ([1]; 1 Hr): 24.7 % dose / 1 % body weight
Callus, % dose / 1 % body weight ([1]; 4 Hrs): 28.9 % dose / 1 % body weight
concentration in the callous compared with 85Sr ([1]; rabbits): somewhat lower than that of 85 Sr
Blood, % Dose in Whole Organ ([2]; EHDP 0.01 mg/kg): 0.99 % Dose
Kidneys, % Dose in Whole Organ ([2]; EHDP 0.01 mg/kg): 0.81 % Dose
Liver, % Dose in Whole Organ ([2]; EHDP 0.01 mg/kg): 0.53 % Dose
Marrow, % Dose in Whole Organ ([2]; EHDP 0.01 mg/kg): 0.34 % Dose
Muscle, % Dose in Whole Organ ([2]; EHDP 0.01 mg/kg): 0.78 % Dose
One Femur, % Dose in Whole Organ ([2]; EHDP 0.01 mg/kg): 2.20 % Dose
One Tibia, % Dose in Whole Organ ([2]; EHDP 0.01 mg/kg): 2.05 % Dose
Urine, % Dose ([2]; EHDP 0.01 mg/kg): 46.7 % Dose
Blood, % Dose in Whole Organ ([2]; EHDP 0.05 mg/kg): 1.35 % Dose
Kidneys, % Dose in Whole Organ ([2]; EHDP 0.05 mg/kg): 2.9 % Dose
Liver, % Dose in Whole Organ ([2]; EHDP 0.05 mg/kg): 1.61 % Dose
Marrow, % Dose in Whole Organ ([2]; EHDP 0.05 mg/kg): 0.78 % Dose
Muscle, % Dose in Whole Organ ([2]; EHDP 0.05 mg/kg): 1.33 % Dose
One Femur, % Dose in Whole Organ ([2]; EHDP 0.05 mg/kg): 2.44 % Dose
One Tibia, % Dose in Whole Organ ([2]; EHDP 0.05 mg/kg): 2.22 % Dose
Urine, % Dose ([2]; EHDP 0.05 mg/kg): 37.3 % Dose
Blood, % Dose in Whole Organ ([2]; EHDP 0.1 mg/kg): 1.02 % Dose
Kidneys, % Dose in Whole Organ ([2]; EHDP 0.1 mg/kg): 0.63 % Dose
Liver, % Dose in Whole Organ ([2]; EHDP 0.1 mg/kg): 0.19 % Dose
Marrow, % Dose in Whole Organ ([2]; EHDP 0.1 mg/kg): 0.20 % Dose
Muscle, % Dose in Whole Organ ([2]; EHDP 0.1 mg/kg): 0.98 % Dose
One Femur, % Dose in Whole Organ ([2]; EHDP 0.1 mg/kg): 2.82 % Dose
One Tibia, % Dose in Whole Organ ([2]; EHDP 0.1 mg/kg): 2.44 % Dose
Urine, % Dose ([2]; EHDP 0.1 mg/kg): 30.4 % Dose
Blood, % Dose in Whole Organ ([2]; EHDP 0.5 mg/kg): 1.503 % Dose
Kidneys, % Dose in Whole Organ ([2]; EHDP 0.5 mg/kg): 1.10 % Dose
Liver, % Dose in Whole Organ ([2]; EHDP 0.5 mg/kg): 0.260 % Dose
Marrow, % Dose in Whole Organ ([2]; EHDP 0.5 mg/kg): 0.19 % Dose
Muscle, % Dose in Whole Organ ([2]; EHDP 0.5 mg/kg): 1.22 % Dose
One Femur, % Dose in Whole Organ ([2]; EHDP 0.5 mg/kg): 1.75 % Dose
One Tibia, % Dose in Whole Organ ([2]; EHDP 0.5 mg/kg): 1.43 % Dose
Urine, % Dose ([2]; EHDP 0.5 mg/kg): 55.37 % Dose
Blood, % dose / 1 % body weight ([3]; 1 Hr): 1.23 % dose / 1 % body weight
Bone(Avg), % dose / 1 % body weight ([3]; 1 Hr): 4.66 % dose / 1 % body weight
Femur, % dose / 1 % body weight ([3]; 1 Hr): 3.85 % dose / 1 % body weight
Kidneys, % Dose in Whole Organ ([3]; 1 Hr): 2.40 % dose
Kidneys, % dose / 1 % body weight ([3]; 1 Hr): 3.93 % dose / 1 % body weight
Liver, % Dose in Whole Organ ([3]; 1 Hr): 0.80 % dose
Liver, % dose / 1 % body weight ([3]; 1 Hr): 0.30 % dose / 1 % body weight
Marrow, % dose / 1 % body weight ([3]; 1 Hr): 0.36 % dose / 1 % body weight
Muscle, % dose / 1 % body weight ([3]; 1 Hr): 0.15 % dose / 1 % body weight
One Femur, % Dose in Whole Organ ([3]; 1 Hr): 0.82 % dose
Pelvis, % dose / 1 % body weight ([3]; 1 Hr): 7.15 % dose / 1 % body weight
Spine, % dose / 1 % body weight ([3]; 1 Hr): 5.87 % dose / 1 % body weight
Tibia, % dose / 1 % body weight ([3]; 1 Hr): 2.17 % dose / 1 % body weight
Urine, % Dose ([3]; 1 Hr): 30.9 % dose
Blood, % Dose in Whole Organ ([3]; 1 Hr): 8.61 % dose
Bone(Avg), % dose in whole organ ([3]; 1 Hr): 46.6 % dose
Marrow, % Dose in Whole Organ ([3]; 1 Hr): 0.70 % dose
Blood, % dose / 1 % body weight ([3]; 2 Hrs): 0.37 % dose / 1 % body weight
Bone(Avg), % dose / 1 % body weight ([3]; 2 Hrs): 4.82 % dose / 1 % body weight
Femur, % dose / 1 % body weight ([3]; 2 Hrs): 3.94 % dose / 1 % body weight
Kidneys, % Dose in Whole Organ ([3]; 2 Hrs): 1.22 % dose
Kidneys, % dose / 1 % body weight ([3]; 2 Hrs): 2.72 % dose / 1 % body weight
Liver, % Dose in Whole Organ ([3]; 2 Hrs): 0.42 % dose
Liver, % dose / 1 % body weight ([3]; 2 Hrs): 0.18 % dose / 1 % body weight
Marrow, % dose / 1 % body weight ([3]; 2 Hrs): 0.17 % dose / 1 % body weight
Muscle, % dose / 1 % body weight ([3]; 2 Hrs): 0.04 % dose / 1 % body weight
One Femur, % Dose in Whole Organ ([3]; 2 Hrs): 0.84 % dose
Pelvis, % dose / 1 % body weight ([3]; 2 Hrs): 7.40 % dose / 1 % body weight
Spine, % dose / 1 % body weight ([3]; 2 Hrs): 5.44 % dose / 1 % body weight
Tibia, % dose / 1 % body weight ([3]; 2 Hrs): 2.49 % dose / 1 % body weight
Urine, % Dose ([3]; 2 Hrs, 1 mg/kg): 51.8 % dose
Blood, % Dose in Whole Organ ([3]; 2 Hrs): 2.58 % dose
Bone(Avg), % dose in whole organ ([3]; 2 Hrs): 48.2 % dose
Marrow, % Dose in Whole Organ ([3]; 2 Hrs): 0.38 % dose
Blood, % dose / 1 % body weight ([3]; 4 Hrs): 0.13 % dose / 1 % body weight
Bone(Avg), % dose / 1 % body weight ([3]; 4 Hrs): 4.74 % dose / 1 % body weight
Femur, % dose / 1 % body weight ([3]; 4 Hrs): 3.86 % dose / 1 % body weight
Kidneys, % Dose in Whole Organ ([3]; 4 Hrs): 0.94 % dose
Kidneys, % dose / 1 % body weight ([3]; 4 Hrs): 1.95 % dose / 1 % body weight
Liver, % Dose in Whole Organ ([3]; 4 Hrs): 0.28 % dose
Liver, % dose / 1 % body weight ([3]; 4 Hrs): 0.11 % dose / 1 % body weight
Marrow, % dose / 1 % body weight ([3]; 4 Hrs): 0.38 % dose / 1 % body weight
Muscle, % dose / 1 % body weight ([3]; 4 Hrs): 0.03 % dose / 1 % body weight
One Femur, % Dose in Whole Organ ([3]; 4 Hrs): 0.81 % dose
Pelvis, % dose / 1 % body weight ([3]; 4 Hrs): 7.41 % dose / 1 % body weight
Spine, % dose / 1 % body weight ([3]; 4 Hrs): 5.52 % dose / 1 % body weight
Tibia, % dose / 1 % body weight ([3]; 4 Hrs): 2.16 % dose / 1 % body weight
Urine, % Dose ([3]; 4 Hrs, 1 mg/kg): 53.4 % dose
Blood, % Dose in Whole Organ ([3]; 4 Hrs): 0.89 % dose
Bone(Avg), % dose in whole organ ([3]; 4 Hrs): 47.4 % dose
Marrow, % Dose in Whole Organ ([3]; 4 Hrs): 0.83 % dose
Blood, % dose / 1 % body weight ([3]; 24 Hrs): 0.07 % dose / 1 % body weight
Bone(Avg), % dose / 1 % body weight ([3]; 24 Hrs): 4.14 % dose / 1 % body weight
Femur, % dose / 1 % body weight ([3]; 24 Hrs): 3.42 % dose / 1 % body weight
Kidneys, % Dose in Whole Organ ([3]; 24 Hrs): 0.63 % dose
Kidneys, % dose / 1 % body weight ([3]; 24 Hrs): 1.29 % dose / 1 % body weight
Liver, % Dose in Whole Organ ([3]; 24 Hrs): 0.43 % dose
Liver, % dose / 1 % body weight ([3]; 24 Hrs): 0.28 % dose / 1 % body weight
Marrow, % dose / 1 % body weight ([3]; 24 Hrs): 0.19 % dose / 1 % body weight
Muscle, % dose / 1 % body weight ([3]; 24 Hrs): 0.02 % dose / 1 % body weight
One Femur, % Dose in Whole Organ ([3]; 24 Hrs): 0.76 % dose
Pelvis, % dose / 1 % body weight ([3]; 24 Hrs): 5.70 % dose / 1 % body weight
Spine, % dose / 1 % body weight ([3]; 24 Hrs): 5.30 % dose / 1 % body weight
Tibia, % dose / 1 % body weight ([3]; 24 Hrs): 2.10 % dose / 1 % body weight
Blood, % Dose in Whole Organ ([3]; 24 Hrs): 0.49 % dose
Bone(Avg), % dose in whole organ ([3]; 24 Hrs): 41.5 % dose
Marrow, % Dose in Whole Organ ([3]; 24 Hrs): 0.42 % dose
skeletal concentrations compared with 85Sr ([3]; rabbits): similar
soft tissue and blood concentrations compared with 85Sr ([3]; various times, rabbits): much lower than those for 85 Sr

technetium-99m
external photon yield ([4]; gamma emission of 140 KeV): 90%
half-life of radionuclide ([4]; radioactive decay): 6 h
